The source of these data is paper PMC7291858, “An Enhanced Variant Designed From DLP4 Cationic Peptide Against Staphylococcus aureus CVCC 546” (Frontiers in Microbiology, 2020).

≈ marks a conversion by molar mass, not a printed value. Peptide text beside a SMILES is read from it.

In one data set the test system is S. aureus ATCC 43300. It counts as cell-based, Staphylococcus aureus. To be noted: microtiter, serial 2-fold dilutions, 37°C, 16∼20 h, triplicate; – = no activity. An outline of the steps: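 MIC values come from triplicate microtiter plate tests in which serial 2-fold peptide dilutions were incubated with bacteria at 37°C for 16∼20 h; no visible growth defined the endpoint.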

The test system of data set [1] is S. epidermidis ATCC 12228. Kind of data set: MIC, microtiter plate assay. The class given is cell-based, Staphylococcus epidermidis. The settings on record: 37°C, 16∼20 h, triplicate. On the procedure:
(§1) The minimal inhibitory concentration (MIC) was evaluated by a microtiter plate assay ([Wiegand et al., 2008]). Serial 2-fold dilutions of test peptides were placed into a 96-well plate containing identical bacterial inoculum and incubated at 37°C for 16∼20 h. Vancomycin was used as antibiotic control. The MIC value was defined as the lowest peptide concentration where no visible growth occurred. All tests were made in triplicate.

The test system of data set [2] is Escherichia coli ATCC 25922. Kind of data set: MIC, microtiter plate assay. The class given is cell-based. The settings on record: 37°C, 16∼20 h, triplicate. On the procedure: as §1
Data set [3] deals with Salmonella pullorum CVCC 533. Kind of data set: MIC, microtiter plate assay. The class given is cell-based. To be noted: 37°C, 16∼20 h, triplicate. As to the method: as §1
Data set [4] has as its system Streptococcus pneumoniae CVCC 2350. Kind of data set: MIC, microtiter plate assay. The settings on record: 37°C, 16∼20 h, triplicate. It counts as cell-based. On the procedure:
as §1

Another data set has as its system mouse erythrocytes. Kind of data set: Hemolytic activity. To be noted: 128 μg/mL, 8% (v/v) mouse erythrocytes in PBS, 1 h, 37°C, absorbance 576 nm, n = 3. It counts as cell-based. As to the method: Hemolytic activity of peptides was evaluated with fresh mouse erythrocytes. Briefly, fresh mouse erythrocytes were collected, washed, and resuspended to a concentration of 8% (v/v) in PBS. Then, an aliquot of erythrocyte solution was added to 96-well plates containing an equal volume of peptide solution (1∼256 μg/mL) and was incubated for 1 h at 37°C. The erythrocyte suspension treated with 0.1% Triton X-100 and left untreated was employed as positive and negative controls, respectively. After centrifugation at 2000 rpm for 5 min, the supernatant was measured using a microplate reader at 576 nm. The percent hemolysis was calculated using the following formula: Percenthemolysis = [(A − A0)/(A100 − A0)] × 100%, where A, A100, and A0 represent the absorbance of the peptide sample and positive and negative controls, respectively.

In data set [5] the test system is mouse macrophage RAW 264.7. Kind of data set: Cytotoxicity, MTT assay. It counts as cell-based. To be noted: 256 μg/mL, RAW 264.7, MTT, n = 4. As to the method:
The cytotoxicity of peptides toward mouse macrophage RAW 264.7 was evaluated by the MTT assay as described previously ([Wang X. et al., 2018]).

Data set [6] relates to S. aureus CVCC 546. Kind of data set: Membrane permeabilization, PI flow cytometry. The class given is cell-based, Staphylococcus aureus. The settings on record: 0.5 h, 10^8 CFU/mL, n = 3. As to the method:
The effects of peptides on membrane permeabilization were measured by flow cytometry ([Zhu et al., 2018]). […] Cells untreated and treated with 2 × MIC DLP4 or vancomycin were used as blank and positive controls. The fluorescence of the dye was monitored at an excitation wavelength of 488 nm and an emission wavelength of 635 nm.
For orientation: In flow cytometry, cells or beads pass a laser one at a time.

In a further data set the test system is S. aureus CVCC 546 gDNA. Kind of data set: Gel retardation assay of gDNA binding. Set-up: species or system Staphylococcus aureus. The settings on record: 10 min incubation, 1% agarose gel, ratios 0-5 (w/w). As to the method: A gel retardation assay ([Zhao et al., 2019]) was utilized to analyze the binding of peptides to genomic DNA (gDNA) extracted from S. aureus CVCC 546 with TIANamp Bacteria DNA Kit (TIANGEN Biotech Co., Ltd., Beijing). The peptides were incubated for 10 min with gDNA at different ratios of 0–5.0 (w/w) and then loaded on 1% agarose gel for electrophoresis analysis.

Data set [7] deals with S. aureus CVCC 546. Kind of data set: Time-kill assay. It counts as cell-based, Staphylococcus aureus. To be noted: MHB, 10^5 CFU/mL, 37°C, n = 3. The source says:
Time-kill assay was used to assess the killing rates of S. aureus cells by AMPs in vitro, done by measuring the number of viable bacteria left at various times after exposure to the peptides. […] At different time intervals, a certain sample was taken, serially diluted, and plated on MHA for colonies counting. Cells treated with 2 × MIC DLP4 or vancomycin and left without treatment were used as the positive and blank controls, respectively ([Flamm et al., 2019]).

Data set [8] deals with S. aureus CVCC 546. Kind of data set: Mouse thigh infection model, CFU in thigh muscle. The settings on record: 10 mg/kg single i.p. dose 2 h post-infection, read 24 h post-infection, n = 6. The class given is in vivo, mouse (female CD-1). On the procedure:
(§2) Mouse experiments were carried out at Gene Engineering Laboratory, Feed Research Institute of Chinese Academy of Agricultural Sciences (CAAS) and complied with institutional animal care and use policies and procedures (AEC-CAAS-20090609). All animal studies were performed with female CD-1 mice, 6∼7 weeks old.
(§3) S. aureus CVCC 546 in the exponential phase were resuspended in MHB and adjusted to 1 × 10^8 CFU/mL, a 0.1-mL inoculum was injected into the right thighs of mice. At 2 h post-infection, mice (n = 6) were administered intraperitoneally (i.p.) with peptides at 2.5, 5, or 10 mg/kg. Mice raised without any treatment, or treated with PBS, 10 mg/kg DLP4, or vancomycin were used as the blank and negative and positive controls, respectively. At 24 h post-infection, peripheral blood was collected and serum was separated for cytokine levels analysis by using enzyme-linked immunosorbent assay (ELISA) kit (R&D systems, United States). Mice were euthanized, the right thighs were aseptically removed and processed for colonies counting ([Ling et al., 2015]).

The next data set concerns IL-10. Kind of data set: Mouse thigh infection model, serum cytokine ELISA. The class given is in vivo, mouse (female CD-1). The settings on record: 10 mg/kg i.p., serum 24 h post-infection. As to the method:
as §2, §3
On the technique in general: ELISA stands for enzyme-linked immunosorbent assay.

The subject of the next data set is IL-6. Kind of data set: Mouse thigh infection model, serum cytokine ELISA. The class given is in vivo, mouse (female CD-1). The settings on record: 10 mg/kg i.p., serum 24 h post-infection. As to the method: as §2, §3
For a further data set, the system named is TNF-α. Kind of data set: Mouse thigh infection model, serum cytokine ELISA. The class given is in vivo, mouse (female CD-1). To be noted: 10 mg/kg i.p., serum 24 h post-infection. As to the method: as §2, §3
Another data set has as its system Gram-negative bacteria. Kind of data set: MIC, summary over Gram-negative strains. The class given is cell-based. The settings on record: E. coli and Salmonella strains of Table 2. As to the method:
as §1

Consider `CC[C@H](C)[C@@H]1NC(=O)[C@@H]2CSSC[C@@H](C(=O)N[C@@H](CCCNC(=N)N)C(=O)N[C@@H](CCCCN)C(=O)O)NC(=O)[C@H](CC(N)=O)NC(=O)[C@@H]3CSSC[C@H](NC(=O)[C@H](C)NC(=O)[C@H](C)NC(=O)[C@H](Cc4c[nH]cn4)NC(=O)CNC(=O)[C@H](C(C)C)NC(=O)[C@H](CCCCN)NC(=O)[C@H](Cc4ccccc4)NC(=O)[C@@H]4CCCN4C(=O)[C@H](CO)NC(=O)[C@H](CC(C)C)NC(=O)[C@H](CC(C)C)NC(=O)[C@H](CC(=O)O)NC(=O)[C@@H](NC(=O)[C@@H](NC(=O)[C@H](C)N)[C@@H](C)O)CSSC[C@H](NC(=O)[C@H](Cc4c[nH]c5ccccc45)NC(=O)CNC(=O)CNC(=O)[C@H](CCCNC(=N)N)NC(=O)[C@H](CCCCN)NC(=O)CNC(=O)[C@H](CCCNC(=N)N)NC(=O)[C@H](C)NC1=O)C(=O)N[C@@H](CC(=O)O)C(=O)NCC(=O)N[C@@H](CCCNC(=N)N)C(=O)N[C@@H](C)C(=O)N[C@@H](C(C)C)C(=O)N3)C(=O)N[C@@H](C)C(=O)N[C@@H](C)C(=O)N[C@@H](Cc1c[nH]cn1)C(=O)N2` [ID13] (HELM PEPTIDE1{A.T.C.D.L.L.S.P.F.K.V.G.H.A.A.C.A.A.H.C.I.A.R.G.K.R.G.G.W.C.D.G.R.A.V.C.N.C.R.K}$PEPTIDE1,PEPTIDE1,3:R3-30:R3|PEPTIDE1,PEPTIDE1,16:R3-36:R3|PEPTIDE1,PEPTIDE1,20:R3-38:R3$$$V2.0; N-terminus and C-terminus assumed), for which, in the data set with S. aureus ATCC 43300, the “A1 (MIC against S. aureus ATCC 43300)” value is 4 µg/mL. For the same compound, the MIC (usually the least concentration at which growth counts as inhibited) in data set [1] is listed as 1.91 µM (≈ 8.02 µg/mL); in data set [2] it was >30.50 µM; in data set [3], >30.50 µM; in data set [4], 0.95 µM (≈ 3.99 µg/mL). The compound also had a hemolysis with mouse erythrocytes of 0.38%. Moreover, the cell viability (usually a per cent measure of how many cells are alive, often set against a control) in data set [5] is 71.4%. The entries for the “percentage of PI-positive cells” value in the data set with S. aureus CVCC 546 [6] (1 × MIC), in the data set on S. aureus CVCC 546 [6] (2 × MIC) and in the data set on S. aureus CVCC 546 [6] (4 × MIC) were 47.2%, 48.2% and 52.8%, respectively. The “peptide/gDNA mass ratio at which gDNA was completely blocked” value in the data set on S. aureus CVCC 546 gDNA was 5. In addition, the “peptide/gDNA mass ratio at which migration of gDNA began to be retarded” value in the data set on S. aureus CVCC 546 gDNA is given as 1. Besides, the figures for the “decrease of CFU counts within 1 h” value with S. aureus CVCC 546 [7] (1 × MIC), in the data set on S. aureus CVCC 546 [7] (2 × MIC) and with S. aureus CVCC 546 [7] (4 × MIC) were 2.16 log10 CFU/mL, 3.14 log10 CFU/mL and 3.4 log10 CFU/mL, respectively. Besides, in the data set with S. aureus CVCC 546 [8], the “reduction of S. aureus in infected thigh muscles” value is given as 1.8 log10 (CFU/g). In addition, the “downregulation of serum level of IL-10” value with IL-10 is 37.66 pg/mL. Further, in the data set on IL-6, the “downregulation of serum level of IL-6” value was determined as 750.02 pg/mL. The “downregulation of serum level of TNF-α” value in the data set on TNF-α turned out to be 1123.30 pg/mL. In addition, the “activity against Gram-negative bacteria” value in the data set with Gram-negative bacteria is “no activity”.
